Reference: patent US20260199485A1, “RNA DEGRADERS AND USES THEREOF” (Arrakis Therapeutics, Inc., priority 2022, published 2026)

target: T1, CNOT7 (Homo sapiens, UniProt Q9UIV1); assay: Binding of compounds to CNOT7 by surface plasmon resonance (SPR); conditions: Table 4; dissociation constant for CNOT7
T1 construct: biotin (biotinylated); purchased Ichor Life Sciences
Procedure: Surface plasmon resonance (SPR) was used to evaluate the binding of compounds to CNOT7. Experiments were performed on a Biacore 8K (Cytiva) with a running buffer consisting of 20 mM HEPES pH7.5, 100 mM KCl, 3 mM MgCl2, 1 mM TCEP, 0.05% tween-20, 2% DMSO. Briefly, biotinylated CNOT7 (Ichor Life Sciences) at a concentration of 70 μg/ml was immobilized to a streptavidin coated chip (Cytiva sensor chip SA) for 1200 sec at a flow rate of 5 μl/min (typical immobilization level 7,500 RU). For compound binding experiments, various concentrations of analyte were flowed over the chip with 120 sec association phase, 120 sec dissociation phase, at a flow rate of 30 ul/min and collection rate of 10 Hz. Reference channel subtraction and solvent correction were applied to all sensograms prior to data analysis. Sensograms were fit to 1:1 steady state affinity model. FIGS. 3 and 4 show the binding of exemplary compounds and the AMP control (a known CNOT7 active site binder) at various concentrations to CNOT7.

T1 sequence (Q9UIV1 whole entry): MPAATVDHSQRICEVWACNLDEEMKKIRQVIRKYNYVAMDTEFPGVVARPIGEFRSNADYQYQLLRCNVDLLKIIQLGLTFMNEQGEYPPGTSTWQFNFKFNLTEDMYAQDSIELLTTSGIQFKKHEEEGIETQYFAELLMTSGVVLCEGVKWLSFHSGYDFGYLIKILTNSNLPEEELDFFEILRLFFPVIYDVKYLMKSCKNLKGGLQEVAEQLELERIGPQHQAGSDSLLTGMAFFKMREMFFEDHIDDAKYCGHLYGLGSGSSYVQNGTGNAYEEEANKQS

SMILES	Kd
COc1cccc(CNC(=O)CSc2nc(=O)[nH]cc2C)c1 [Compound I-5]	> 25 µM

same assay, conditions: Table 5; dissociation constant for CNOT7 by SPR

SMILES	Kd
CCOc1ccc([C@@H](C)NC(=O)CSc2nc(=O)[nH]cc2C)cc1 [Compound I-277]	1 to 25 µM
COc1ccc(C2(NC(=O)CSc3nc(=O)[nH]cc3Cl)CC2)cc1F [Compound I-307]	0.1 to 1 µM
Cc1c[nH]c(=O)nc1SCC(=O)NCc1ccc2c(c1)NC(=O)C2 [Compound I-57]	1 to 25 µM
COCC(Sc1nc(=O)[nH]cc1C)C(=O)NCc1ccc2c(c1)CC(=O)N2 (stereo not drawn) [Compound I-191]	0.1 to 1 µM
COc1ccc([C@@H](C)NC(=O)CSc2nc(=O)[nH]cc2Cl)cc1F [Compound I-306]	1 to 25 µM
Cc1c[nH]c(=O)nc1SCC(=O)NCc1ccc2c(c1)NCCO2 [Compound I-54]	> 25 µM
C[C@@H](NC(=O)CSc1nc(=O)[nH]cc1Cl)c1ccc(Cl)c(F)c1 [Compound I-314]	1 to 25 µM
CC[C@@H](NC(=O)CSc1nc(=O)[nH]cc1C)c1ccc(OC)cc1 [Compound I-217]	1 to 25 µM
COc1ccc([C@H](NC(=O)CSc2nc(=O)[nH]cc2C)C(F)(F)F)cc1 [Compound I-221]	1 to 25 µM
COc1ccc([C@H](NC(=O)CSc2nc(=O)[nH]cc2C)C(C)C)cc1 [Compound I-218]	1 to 25 µM
COCCOCCC(Sc1nc(=O)[nH]cc1C)C(=O)NCc1ccc(OC)cc1 (stereo not drawn) [Compound I-165, 4-(2-methoxyethoxy)-N-[(4-methoxyphenyl)methyl]-2-[(5-methyl-2-oxo-1H-pyrimidin-4-yl)sulfanyl]butanamide]	1 to 25 µM

same assay, conditions: Table 6; dissociation constant for CNOT7 by SPR

SMILES	Kd
Cc1c[nH]c(=O)nc1SCC(=O)N[C@@H](C)c1ccc2c(c1)CC(=O)N2 [Compound I-328]	1 to 25 µM
Cc1c[nH]c(=O)nc1SCC(=O)N[C@H](C)c1ccc2c(c1)CC(=O)N2 [Compound I-190]	1 to 25 µM
COc1cc(F)c([C@@H](C)NC(=O)CSc2nc(=O)[nH]cc2Cl)c(F)c1 [Compound I-312]	1 to 25 µM

same assay, conditions: dissociation constant by SPR, Table 7

SMILES	Kd
COc1ccc(CNC(=O)[C@H](CCOCCOCCOCCN=[N+]=[N-])Sc2nc(=O)[nH]cc2Cl)c(F)c1 [Compound I-402]	1 to 25 µM
Cc1c[nH]c(=O)nc1SCC(=O)N[C@@H](C)c1ccc2c(c1)CC(=O)N2 [Compound I-328]	1 to 25 µM
COCCN1CCN(CCC(Sc2nc(=O)[nH]cc2C)C(=O)NCc2ccc(OC)cc2)CC1 (stereo not drawn) [Compound I-499]	1 to 25 µM
[N-]=[N+]=NCCOCCOCCOCC[C@H](Sc1nc(=O)[nH]cc1Cl)C(=O)NCc1ccc2c(c1)CC(=O)N2 [Compound I-410]	> 25 µM
COc1ccc(CNC(=O)C(CCC(=O)N2CCN(C)CC2)Sc2nc(=O)[nH]cc2C)cc1 (stereo not drawn) [Compound I-491]	> 25 µM
COCCOCC[C@@H](Sc1nc(=O)[nH]cc1C)C(=O)NCc1ccc(OC)cc1 [Compound I-444]	1 to 25 µM
COc1ccc([C@@H](C)NC(=O)[C@@H](CCOCCOCCOCCN=[N+]=[N-])Sc2nc(=O)[nH]cc2C)c(F)c1 [Compound I-378]	1 to 25 µM
COc1ccc(CNC(=O)[C@H](CCc2ccc(O)cc2)Sc2nc(=O)[nH]cc2C)cc1 [Compound I-489]	1 to 25 µM
COc1ccc2c(c1)C[C@@H](COCCOCCOCCOCCN=[N+]=[N-])N(C(=O)CSc1nc(=O)[nH]cc1Cl)C2 [Compound I-415]	> 25 µM
